Assay results as given in the RepoRT retention time repository (doi:10.1021/acs.analchem.2c02893).

Legend:
Conditions in all cases: stereoisomer not certain
[1] = RP, Thermo Scientific Acclaim RSLC 120 C18, 100 × 2.1 mm, 2.2 µm, 30 °C, 0.2 mL/min, estimated dead time 1.1 min; A: water + 0.1% formic acid, pH 2.6; B: methanol + 0.1% formic acid, pH 2.6; gradient (min/%B) 0/10 4/50 17/95 25/95 25.1/10 30/10
[2] = RP, Waters ACQUITY UPLC BEH C18, 100 × 2.1 mm, 1.7 µm, 30 °C, 0.35 mL/min, estimated dead time 0.63 min; A: water + 0.01% formic acid + 5 mM ammonium formate, pH 3.71; B: acetonitrile + 0.01% formic acid, pH 3.71; gradient (min/%B) 0/10 3/10 22/100 30/100 30.1/10 40/10
[3] = RP, Waters ACQUITY UPLC BEH C18, 100 × 2.1 mm, 1.7 µm, 35 °C, 0.35 mL/min, estimated dead time 0.63 min; A: water + 0.01% formic acid + 5 mM ammonium formate, pH 3.71; B: acetonitrile + 0.01% formic acid, pH 3.71; gradient (min/%B) 0/5 0.5/5 16/95 16.1/99 19/99 19.1/5 21/5
[4] = RP, Thermo Scientific Acclaim RSLC 120 C18, 100 × 2.1 mm, 2.2 µm, 30 °C, 0.2 mL/min, estimated dead time 1.1 min; A: 90% water + 10% methanol + 0.01% formic acid + 5 mM ammonium formate, pH 3.61; B: methanol + 0.01% formic acid + 5 mM ammonium formate, pH 3.61; gradient (min/%B) 0/1 1/1 2/39 13/99.9 15/99.9 15.1/1 20.1/1

Structure (SMILES) | LC retention time [1] [min] | LC retention time [2] [min] | LC retention time [3] [min] | LC retention time [4] [min]
CC(N)Cc1ccccc1 (configuration not stated) [Amphetamine] | 3.86 | 2.99 | 3.28 | 4.16
C1=CCC(c2cccnc2)NC1 (configuration not stated) [Anatabine] | 3.66 | 1.08 | 1.27 | 2.68
CCNc1nc(N)nc(Cl)n1 [Atrazine-desisopropyl] | 5.22 | 3.51 | 3.58 | 4.75
CCNc1nc(Cl)nc(NC(C)C)n1 [Atrazine] | 9.72 | 10.3 | 7.82 | 8.16
c1ccc2n[nH]nc2c1 [Benzotriazole (BTR)] | 5.31 | 3.69 | 3.61 | 4.76
CC(C)NCC(O)COc1ccc(COCCOC(C)C)cc1 (configuration not stated) [Bisoprolol] | 5.8 | 8.09 | 5.91 | 5.91
CNC(=O)ON=C(C)C(C)SC (configuration not stated) [Butocarboxim] | 6.82 | 7.64 | 5.7 | 6.07
CC(C)NCC(O)c1ccc(N)c(C#N)c1 (configuration not stated) [Cimaterol] | 2.51 | 1.48 | 2.1 | 2.99
COc1cc2c(c(OC)c1OC)-c1ccc(OC)c(=O)cc1C(NC(C)=O)CC2 (configuration not stated) [Colchicine] | 7.17 | 8.29 | 5.99 | 6.43
Nc1nc(N)nc(NC2CC2)n1 [Cyromazine] | 2.06 | 1.06 | 1.23 | 2.78
COc1ccc(Cc2cnc(N)nc2N)cc1OC [Diaveridine] | 3.67 | 3.36 | 3.48 | 3.88
COP(=O)(OC)OC=C(Cl)Cl [Dichlorvos] | 8.02 | 9.14 | 6.79 | 7
CCC(C)C1OC2(C=CC1C)CC1CC(CC=C(C)C(OC3CC(OC)C(OC4CC(OC)C(NC)C(C)O4)C(C)O3)C(C)C=CC=C3COC4C(O)C(C)=CC(C(=O)O1)C34O)O2 (configuration not stated) [Emamectin] | 14.3 | 16.3 | 12.6 | –
CCSCc1ccccc1OC(=O)NC [Ethiofencarb] | 9.05 | 10.7 | 8.02 | 7.7
COC(=O)Nc1nc2ccc(Sc3ccccc3)cc2[nH]1 [Fenbendazole] | 10.9 | 12.2 | 9.17 | 10.3
CCNC(C)Cc1cccc(C(F)(F)F)c1 (configuration not stated) [Fenfluramine] | 5.84 | 8.46 | 6.21 | –
COCC(NC(C)=O)C(=O)NCc1ccccc1 (configuration not stated) [Lacosamide] | 5.79 | 5.76 | 4.46 | 5.09
Nc1nnc(-c2cccc(Cl)c2Cl)c(N)n1 [Lamotrigine] | 5.17 | 6.41 | 4.66 | 5.31
CCC(C(N)=O)N1CCCC1=O (configuration not stated) [Levetiracetam] | 3.89 | 1.68 | 2.43 | 3.74
NC1Cc2cc3c(cc2C1)OCO3 [MDAI] | 3.47 | 2.34 | 2.95 | 3.81
CC(N)Cc1ccc2c(c1)OCO2 (configuration not stated) [MDA] | 3.96 | 3.36 | 3.46 | 4.19
COP(N)(=O)SC (configuration not stated) [Methamidophos] | 2.61 | 1.18 | 1.34 | 2.76
CN1CCC23c4c5ccc(O)c4OC2C(O)C=CC3C1C5 (configuration not stated) [Morphine (MOR)] | 2.11 | 1.21 | 1.47 | 2.54
NC(=O)c1cccnc1 [Nicotinamide] | 1.69 | 1.06 | 1.2 | 2.73
c1cc2c(cc1CN1CCNCC1)OCO2 [Piperazine-1-Piperonyl] | 2.56 | 2.63 | 3.2 | –
CC12CCC(=O)C=C1CCC1C2CCC2(C)C(O)CCC12 (configuration not stated) [Testosterone] | 12.2 | 11.6 | 8.76 | –
COP(=O)(OC)C(O)C(Cl)(Cl)Cl (configuration not stated) [Trichlorfon] | 5.86 | 5.41 | 4.26 | –

Next, values leading:

LC retention time [1] [min] | LC retention time [2] [min] | LC retention time [3] [min] | LC retention time [4] [min] | Structure (SMILES)
11.2 | 9.93 | 7.37 | 9.21 | CC12CCC(O)CC1CCC1C2C(=O)CC2(C)C1CCC2(O)C(=O)CO (configuration not stated)
2.13 | 1.31 | 1.27 | 3.14 | Nc1ncnc2c1ncn2C1OC(CO)C(O)C1O (configuration not stated) [Adenosine]
13.8 | 14.5 | 11 | 10.8 | COc1ccc(C(=O)c2ccccc2)c(O)c1 [Benzophenon 3 (=2-Hydroxy-4-methoxybenzophenon)]
9.38 | 9.74 | 7.21 | 7.83 | CCCCOc1ccc(CC(=O)NO)cc1 [Bufexamac]
4.69 | 2.43 | 3.08 | 4.23 | Cn1c(=O)c2c(ncn2C)n(C)c1=O [Caffeine]
5.37 | 6.08 | 4.19 | 4.36 | CCN1CCN(C(=O)NC(C(=O)NC2C(=O)N3C(C(=O)O)=C(CSc4nnnn4C)CSC23)c2ccc(O)cc2)C(=O)C1=O (configuration not stated) [Cefoperazone]
5.29 | 7.46 | 5.34 | 5.24 | CCN(CC)C(=O)Nc1ccc(OCC(O)CNC(C)(C)C)c(C(C)=O)c1 (configuration not stated) [Celiprolol]
2.88 | 1.54 | 2.11 | 3.24 | CN=C(NC#N)NCCSCc1nc[nH]c1C [Cimetidine]
4.46 | 5.54 | 4.13 | 4.42 | O=C(O)c1cn(C2CC2)c2cc(N3CCNCC3)c(F)cc2c1=O [Ciprofloxacin]
1.71 | 1.41 | 2.06 | 3.75 | CN1C(=O)CCC1c1cccnc1 (configuration not stated) [Cotinine]
8.57 | 9.84 | 7.28 | 7.46 | CC1CCc2cc(F)cc3c(=O)c(C(=O)O)cn1c23 (configuration not stated) [Flumequine]
13.1 | 14 | 10.7 | 10.7 | CC(C)Cc1ccc(C(C)C(=O)O)cc1 (configuration not stated) [Ibuprofen]
20.4 | 21.1 | 17 | – | CCC(C)C1OC2(CCC1C)CC1CC(CC=C(C)C(OC3CC(OC)C(OC4CC(OC)C(O)C(C)O4)C(C)O3)C(C)C=CC=C3COC4C(O)C(C)=CC(C(=O)O1)C34O)O2 (configuration not stated) [Ivermectin]
3.97 | 3.59 | 3.56 | 4.33 | CCNCC(=O)Nc1c(C)cccc1C [Lidocaine-Nor]
4.46 | 5.29 | 4.18 | 4.54 | CCN(CC)CC(=O)Nc1c(C)cccc1C [Lidocaine]
15.4 | 14.4 | 11 | 11.8 | Cc1cccc(C)c1OCC(=O)NC(Cc1ccccc1)C(O)CC(Cc1ccccc1)NC(=O)C(C(C)C)N1CCCNC1=O (configuration not stated) [Lopinavir]
6.63 | 8.04 | 5.86 | 6.91 | CC12CC3CC(C)(C1)CC(N)(C3)C2 [Memantine]
4.94 | 6.53 | 4.79 | 4.93 | COCCc1ccc(OCC(O)CNC(C)C)cc1 (configuration not stated) [Metoprolol]
1.34 | 1.03 | 1.17 | 2.41 | CN1CCCC1c1cccnc1 (configuration not stated) [Nicotine]
18 | 19.8 | 15.3 | 13.4 | CCCCC(CC)COC(=O)C(C#N)=C(c1ccccc1)c1ccccc1 (configuration not stated) [Octocrylene]
